Source: US20250268849A1, “TREATMENT OF LOW-GRADE GLIOMA WITH MIRDAMETINIB” (St. Jude Children’s Research Hospital, Inc., priority 2022, published 2025)

System: Low-Grade Glioma (LGG)
Assay: Phase I/II trial of single agent mirdametinib in patients with low-grade glioma
Type: in vivo, human
Protocol: Example 1: Phase I/II Evaluation of Single Agent Mirdametinib, a Brain-Penetrant MEK1/2 Inhibitor, for the Treatment of Children, Adolescents, and Young Adults With Low-Grade Glioma (LGG) A multi-arm phase I/II trial of mirdametinib is currently being conducted in patients ≥2 and <25 years with LGG. Phase I requires participants have no prior exposure to MEK inhibitors and recurrent/progressive disease with biopsy-proven evidence of MAPK pathway activation. Three escalating dose levels (2 mg/m^2/dose BID, 2.5 mg/m^2/dose BID and 3 mg/m^2/dose BID) are planned using a rolling 6 design. The median age enrolled in the study is 10 years (3-21 years old). 10 patients have somatic gene rearrangements (7 BRAF, 1 MYB, 1 RAF1, 1 FGFR1); 1 patient has a NF1 germline mutation; and 3 patients have metastatic disease. […] Of the 11 patients having a somatic gene rearrangement or NF1, 4 patients with BRAF and the 1 patient with FGFR1 received a dose of 2 mg/m^2 BID. The remainder of the 11 patients (3 BRAF, 1 MYB, 1 NF1, and 1 RAF1) received a dose of 2.5 mg/m^2 BID.

## O=C(NOC[C@H](O)CO)c1ccc(F)c(F)c1Nc1ccc(I)cc1F (single isomer, unassigned) [mirdametinib]
2 mg/m^2 BID (N = 5)
  Minor Response (MR), patients (decrease by 25-50%): 4 (80.0%)
2 mg/m^2 BID (N = 5), patients with somatic gene rearrangement or NF1, as of cut-off date
  Partial Response (PR), patients (decrease in tumor size by 50-75%): 1 (20.0%)
2.5 mg/m^2 BID (N = 6)
  Minor Response (MR), patients (decrease by 25-50%): 3 (50.0%)
  Stable Disease (SD), patients (stable tumor size or decrease up to 25%): 3 (50.0%)
Total (N = 11)
  Minor Response (MR), patients (decrease by 25-50%): 7 (63.6%)
  Stable Disease (SD), patients (stable tumor size or decrease up to 25%): 3 (27.3%)
Total (N = 11), 2 and 2.5 mg/m^2 BID pooled
  Partial Response (PR), patients (decrease in tumor size by 50-75%): 1 (9.1%)
Dose level 1 (2 mg/m^2)
  dose-limiting toxicities: No dose-limiting toxicities occurred
Dosed continuously, recurrent/progressive pediatric LGG
  tolerability: well-tolerated
Patients who completed at least one follow-up disease evaluation
  patients with minor response (>25%-<50% decrease): Four of the six patients
Phase I
  MEK related retinopathy or cardiopathy: No MEK related retinopathy or cardiopathy has been observed
  disease progressions: No disease progressions have occurred
Phase I, dose levels 1 and 2
  treatment-related adverse events, grade: Only grade 1 and 2
